Assay results reported in paper PMC10454575, “A Novel Aniline Derivative from Peganum harmala L. Promoted Apoptosis via Activating PI3K/AKT/mTOR-Mediated Autophagy in Non-Small Cell Lung Cancer Cells” (International Journal of Molecular Sciences, 2023).
pKd: −log10 of the molar value.

Target: T1, CD133 (Homo sapiens, UniProt O43490)
T1 construct: gene PROM1
T1 sequence (O43490 20-865): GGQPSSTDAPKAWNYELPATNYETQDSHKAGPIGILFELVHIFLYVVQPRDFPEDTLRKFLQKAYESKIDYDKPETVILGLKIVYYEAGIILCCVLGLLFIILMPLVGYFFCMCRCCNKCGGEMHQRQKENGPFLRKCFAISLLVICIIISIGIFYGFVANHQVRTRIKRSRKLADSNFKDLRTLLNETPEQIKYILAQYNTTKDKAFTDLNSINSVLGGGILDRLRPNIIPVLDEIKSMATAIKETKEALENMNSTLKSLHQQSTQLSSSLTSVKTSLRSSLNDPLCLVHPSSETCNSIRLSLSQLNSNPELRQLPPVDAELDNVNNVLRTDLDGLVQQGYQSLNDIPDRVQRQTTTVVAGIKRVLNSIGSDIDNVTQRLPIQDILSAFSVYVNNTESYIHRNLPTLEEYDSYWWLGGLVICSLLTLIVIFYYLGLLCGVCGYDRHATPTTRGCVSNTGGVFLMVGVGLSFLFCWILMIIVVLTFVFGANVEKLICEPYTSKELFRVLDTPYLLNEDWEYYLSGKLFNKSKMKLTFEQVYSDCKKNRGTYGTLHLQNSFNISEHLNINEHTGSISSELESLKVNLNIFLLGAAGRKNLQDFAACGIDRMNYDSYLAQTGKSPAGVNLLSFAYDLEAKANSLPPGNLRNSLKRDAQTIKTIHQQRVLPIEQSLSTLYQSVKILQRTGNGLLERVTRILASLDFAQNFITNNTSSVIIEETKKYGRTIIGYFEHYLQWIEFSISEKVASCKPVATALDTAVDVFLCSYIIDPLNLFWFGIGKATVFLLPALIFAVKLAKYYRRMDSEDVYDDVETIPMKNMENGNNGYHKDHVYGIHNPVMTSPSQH
Test: surface plasmon resonance (SPR), single-site fit, […] PA
Assay type: binding

pKd: 5.14
SMILES: COc1ccc(C(=O)CCNC(C)=O)c(N)c1 [PA, pegaharoline A]
